Consider one sequence from US20240376148A1, “MEDICAMENT FOR INHIBITING DIETARY OBESITY AND POLYPEPTIDE USED THEREFOR” (INSTITUTE OF ZOOLOGY, CHINESE ACADEMY OF SCIENCES, priority 2022, published 2024).

The subject of assay [1] is A. muciniphila. Put plainly: qPCR of abundance of A. muciniphila in intestine of rats. The assay is classed as in vivo, Sprague Dawley (SD) rats. Conditions: figure d of FIG. 7 (rats), p<0.05. The text has this:
FIGS. 7A-7H are a graph showing the effect of using D3 on rats and rhesus monkeys in Example 2 of the present invention. FIG. 7A is the schematic diagram of sampling time point in rats; FIG. 7B is the graph showing the results of the growth rate of body weight with different feeding treatments of the rat; FIG. 7C is the graph showing the results of the short-term feed intake measurement of the rat; FIG. 7D is the graph showing the results of the qPCR detection of the abundance of A. muciniphila in intestine of rats with different feeding treatment; FIG. 7E is a schematic diagram of the sampling time point in rhesus monkeys; FIG. 7F is the graph showing the results of the growth rate of body weight with different feeding treatments of rhesus monkeys; FIG. 7G is the feed intake monitoring graphs of rhesus monkeys with different feeding treatments; FIG. 7H is the graph showing the results of the qPCR detection of the abundance of A. muciniphila in intestine of rhesus monkeys with different feeding treatment. The data shown in the figure are mean±standard deviation, the number of repetitions is 5-10, and the significant difference of each group is analyzed by Wilcoxon test. * representing a significance analysis result of P<0.05, ** representing a significance analysis result of P<0.01.
Body weights were monitored weekly. […]
(In general: Quantitative PCR measures a nucleic acid by following its amplification.)

In assay [2] the test system is fecal flora. As to the kind of experiment: 16s amplicon sequencing of fecal flora of SPF mice. The assay is classed as in vivo. Conditions: SPF mice feces. How it is done: At this time, in order to further confirm whether the reason for the weight loss of the SPF mice was related to the change of the ecological structure of the intestinal flora, the feces of mice in NC, HFD and D3 groups collected in the previous SPF mice experiment were analyzed by 16 s amplicon sequencing. sequencing method (reference: Quan, LH, et al. Myristoleic acid produced by enterococci reduces obesity through brown adipose tissue activation. Gut 69, 1239-1247 (2020).) was used to analyze the fecal flora of mice.

Assay [3] deals with A. muciniphila. As to the kind of experiment: qPCR of relative abundance of A. muciniphila in intestinal flora of SPF mice. Conditions: p<0.05. The assay is classed as in vivo. As for the experimental part: In order to verify the changes in the relative abundance of A.muciniphila in the intestinal flora of mice fed with other HD, qPCR experiments were performed on the changes of intestinal flora in mice. Faecal bacterial DNA was extracted from the faeces of mice in the NC, HFD, D1, D2, D3, D5, D7, D8, D9 and D10 groups collected in the pre-SPF mice experiments and then the relative abundance of A. muciniphila was determined using qPCR.

Assay [4] concerns UGN. As to the kind of experiment: ELISA detection of serum UGN in rats. The assay is classed as in vivo. The settings on record: P<0.05. How it is done: Serum preparation: mice were placed at room temperature for 2 hours or 4° C. overnight after eye vein blood collection, and centrifuged at 1000× g for 15 minutes at 2-8° C.; the supernatant can be taken for immediate detection; or subpackaged, and the specimens were stored at −20° C. or −80° C., but repeated freezing and thawing should be avoided. Thawed samples should be centrifuged again prior to detecting.
The serum sample diluent was diluted 1:200 times and then tested. The specific operation was as follows: 5 μl of the sample was added to 45 μl of the sample diluent (1:10 dilution) and mixed. Then 15 μl of the above diluent was added to the 285 μl sample diluent (1:20 dilution) and mixed. The sample obtained after the completion of the second step was 1:200 times dilution. The sample incubation, primary antibody, horseradish peroxidase labeled avidin working solution, color development, termination and enzyme labeling detection were carried out in turn.
(ELISA stands for enzyme-linked immunosorbent assay.)

Assay [5] is described as follows: Short-term feed intake experiment of SPF rats. It is filed as in vivo. Conditions: after 8 weeks of treatment, p<0.05. The text has this:
A total of 2 treatments were set up, with 5 rats in each treatment, and each treatment was subjected to different feeding treatments, specifically as follows:
HFD group (i.e. high-fat diet group): 8 rats were fed with high-fat diet, the high-fat diet used was rodent feed (containing 60 kcal % fat, D12492), free diet and drinking water for 8 weeks.
D3 group (i.e. high-fat diet+D3 medicine intragastric administration group): 10 rats were fed with high-fat diet, free diet and drinking water. Intragastrically administrated with HD (choose D3), 0.5 mg-2 mg/Kg body weight, 0.5 ml, once/day for 8 weeks.
According to the above treatment, it was carried out for 8 weeks, and then within 1 week, the rats were starved for one day and then given feed, and the feed intake of the animals in the following day was recorded. That is, food weights were recorded every other day (4 separate measurements) and the average daily intake was determined for each 2-day period and calculated for each individual during the one-week measurement period. The obtained were the results of the short-term intake statistics (unit: g/only/day).

With RTRYCRTGR [D3], the “relative abundance of A. muciniphila in the intestine by qPCR” value in assay [1] is listed as “significantly increased”. In addition, in assay [2], the “abundance of Bacteroides and A. muciniphila (LEfSc analysis)” value was “significant increase”; the “abundance of Prevotella, Desulfovibrio and Lawsonia (LEfSc analysis)” value is listed as “significant decrease”; the “fecal flora (diversity analysis and PCOA) vs HFD group” value is “significantly different from that of the HFD group”. In assay [3], the “relative abundance of A. muciniphila in the intestinal flora by qPCR” value is recorded as “significantly increased”. Besides, the “level of Guca2b in rat serum” value in assay [4] is given as “significantly increased”. Moreover, in assay [5], the “daily feed intake (short-term) vs HFD group” value is on record as “significantly lower”.
